In patent US20230293639A1, “SYSTEMS, DEVICES, COMPOSITIONS, AND METHODS FOR TREATING DIABETES” (Abvance Therapeutics, Inc., priority 2020, published 2023):

System: patients with Type 1 diabetes
Assay: Liquid meal challenge with IV insulin alone or IV insulin-glucagon co-infusion (4:1)
Assay type: in vivo, human
Conditions: for Requiring IV glucose rescue: subjects of eleven, rescue if plasma glucose dropped to 50 mg/dl
Procedure: Referring now to FIG. 12, a study protocol conducted by the applicant in human patients with Type 1 diabetes is illustrated, consistent with the present inventive concepts. […] The liquid meal challenge allows a clinically relevant assessment of plasma glucose rise and fall. […] By protocol, if plasma glucose dropped to 50 mg/dl, a variable glucose infusion was applied to maintain the glucose level at approximately 50 mg/dl, to avoid more serious hypoglycemia from occurring.
FIG. 13 illustrates the glucose excursion following the meal challenge for eleven patients (also referred to as “subjects” herein). […] The glucose excursion data is also presented below in Table 1, which compares peak plasma glucose levels and AUCs (area under curve) for the two treatment groups.

In the case of insulin, the “subjects that had to be rescued” value (7 subjects whose glucose fell below the pre-meal value in the last 30 minutes) is reported as 5, the “average glucose infusion rate” value (7 subjects whose glucose fell below the pre-meal value, last 30 minutes) is reported as 5.9 ± 2.2 mg/kg/min and the “Time <70 mg/dl” value (eleven Type 1 diabetes patients) is reported as 20 ± 7%. For the same substance, the “ΔPG 0-120AUC” value (eleven Type 1 diabetes patients, 0-120 min after liquid meal) was 8162 ± 1514 mg·min/dL, the “ΔPG 0-180AUC” value (eleven Type 1 diabetes patients, 0-180 min after liquid meal) was 10501 ± 3014 mg·min/dL and the “Peak PG” value (eleven Type 1 diabetes patients, after liquid meal) was 224 ± 18 mg/dL. The “Fasting PG” value (eleven Type 1 diabetes patients, before liquid meal) was 121 ± 5 mg/dL, the “sympathetic central nervous system response to hypoglycemia (venous plasma norepinephrine and epinephrine)” value (four patients) was “elevations of venous plasma norepinephrine and epinephrine” and the “average glucose infusion rate over the last 30 minutes” value (in all subjects (eleven-subject comparison)) was 3.8 ± 1.6 mg/kg/min. For the same substance, the PG nadir (lowest point during insulin-alone arm vs equivalent time point during insulin-glucagon arm) was 51 ± 4.0 mg/dL, the “average plasma glucose nadir” value (seven subjects with plasma glucose <80 mg/dl in insulin-alone arm, matching time point in insulin-glucagon arm) was 50 ± 4 mg/dL and the “Requiring IV glucose rescue” value (listed as Insulin-Alone) was 5/11. The “Requiring IV glucose rescue” value (listed as insulin-alone) was “Five of eleven” and the “patients rescued with glucose infusions” value (subset of four patients with more complete hormone analysis) was “Three out of the four”.
